Experiments:
rat squalene synthetase = molecular target: T1, rat squalene synthetase (Rattus norvegicus, UniProt Q02769); experiment: Rat squalene synthetase inhibitory activity (rat liver microsomal fraction, [3H]farnesyl-pyrophosphate); type: biochemical; conditions: rat liver microsomal fraction 30 μg/mL, 5 μM [3H]farnesyl-pyrophosphate, 37° C., 20 minutes; read-out: IC50 (squalene synthetase inhibitory activity: concentration inhibiting 50% of radioactivity incorporated into squalene)
T1 construct: the final sediment thus obtained was used as a microsomal fraction for the measurement of enzymatic activity; from tissue; host or cells: liver of eight-week-old SD male rats, washed 105,000 x g microsomal fraction
T1 sequence (Q02769 1-416): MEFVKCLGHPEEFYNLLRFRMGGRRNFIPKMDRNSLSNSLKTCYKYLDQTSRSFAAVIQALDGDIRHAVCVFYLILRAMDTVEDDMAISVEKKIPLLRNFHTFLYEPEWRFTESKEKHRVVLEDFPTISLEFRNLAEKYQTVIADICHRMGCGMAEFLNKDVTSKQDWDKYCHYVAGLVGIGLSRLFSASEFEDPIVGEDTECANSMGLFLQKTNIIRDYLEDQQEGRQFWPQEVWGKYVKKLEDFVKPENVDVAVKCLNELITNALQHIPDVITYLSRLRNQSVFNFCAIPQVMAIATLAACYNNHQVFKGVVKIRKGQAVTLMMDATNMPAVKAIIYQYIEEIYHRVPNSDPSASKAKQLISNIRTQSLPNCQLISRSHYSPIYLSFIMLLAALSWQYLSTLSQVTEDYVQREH
Experimental: 1. Rat Squalene Synthetase Inhibitory Activity
(1) Preparation of Enzyme Source
As an enzyme source, a microsomal fraction prepared from a rat liver was employed. First, eight-week-old SD male rats were subjected to laparotomy under anesthesia with pentobarbital sodium. […] To the liver thus obtained were added 0.3M sucrose, 1 mM dithiothreitol (DTT), 1 mM sodium ethylenediamine tetraacetate (EDTA) and various protease inhibitors. The resulting mixture was homogenized in the presence of a 10 mM phosphate buffer adjusted to pH 7.4 and centrifuged for 5 minutes at 2,000×g and for 15 minutes at 10,000×g. As the protease inhibitor, phenylmethanesulfonyl fluoride (PMSF), leupeptin and aprotinin were added to give the final concentrations of 1 mM, 10 μM, and 5 μg/mL, respectively. The supernatant after centrifugation was centrifuged further at 105,000×g for 60 minutes. The sediment thus obtained was suspended in a 10 mM phosphate buffer (pH 7.4) containing 1 mM DTT, 1 mM EDTA, and the above-described protease inhibitors and the resulting suspension was centrifuged at 105,000×g for 30 minutes, which operation was performed twice. After washing, the final sediment thus obtained was used as a microsomal fraction for the measurement of enzymatic activity.
(2) Measurement of Squalene Synthetase Inhibitory Activity
Squalene synthetase activity was measured in accordance with the method of Schechter, et al., described in Journal of Biological Chemistry, 267, 8628-8635 (1992). Described specifically, the compound of the present invention dissolved in water or dimethylsulfoxide (DMSO) was added to an enzyme reaction mixture (total amount: 50 μl) containing 5 mM reduced nicotinamide adenine dinucleotide phosphate (NADPH), 5 mM 3-[(3-cholamidopropyl)dimethylammonio]propanesulfonic acid (CHAPS), 10 mM potassium fluoride, 10 mM magnesium chloride, 10 mM DTT, 1 μM/mL NB-598 (squalene epoxydase inhibitor, Journal of Biological Chemistry, 265, 18075-180788 (1990)), 50 mM HEPES buffer (pH 7.4)), 30 μg/mL of the rat liver microsomal fraction, and 5 μM [^3H] farnesyl-pyrophosphate and the resulting mixture was reacted at 37° C. for 20 minutes (enzyme reaction was started by adding [^3H]farnesyl-pyrophosphate to the enzyme reaction mixture which had been incubated in advance at 37° C. for 10 minutes). To the enzyme reaction mixture was added 5 μl of 1M EDTA (pH 9.2) to terminate the enzyme reaction, followed by the addition of 5 μl of a 0.5% squalene ethanol solution. After spotting of a 40 μl portion of the resulting mixture on a plastic sheet for thin layer chromatography, development with 5% toluene-95% hexane and drying, these pots were visualized by exposure to iodine vapor and the band of squalene was identified. The spots were cut out with scissors and put in a vial container. To the container was added 10 mL of Aquasol-2 (product of New England Nuclear Research Products, USA) and radioactivity was measured by a liquid scintillation counter. The squalene synthetase inhibitory activity was expressed as a concentration (IC50) of the compound inhibiting 50% of radioactivity incorporated into squalene.

[1] = test system: liver-cholesterol synthesis; experiment: Rat single-dose liver-cholesterol synthesis inhibitory effect; type: in vivo; conditions: Wistar male rats, 3 mg/kg orally, 14C-mevalonic acid i.p. one hour later, liver taken one hour after that, relative to control group
Experimental: 2. Rat Single-Dose Liver-Cholesterol Synthesis Inhibitory Effect
A rat single-dose liver-cholesterol synthesis inhibitory effect was measured as described below.
To each the compounds of the present invention was added a necessary amount of a 0.5% methyl cellulose solution immediately before use. Then, an equivalent molar amount of sodium hydroxide or sodium hydrogen carbonate was added to dissolve or suspend it in the resulting solution. To 6-week-old Wistar male rats were orally administered each of the compounds of the present invention (3 mg/kg), while only a 0.5% methyl cellulose solution was administered to a control group. One hour later, physiological saline of mevalonic acid (5 μCi/5 mL/kg) labeled with a radioisotope ^14C was intraperitoneally administered. The rats were sacrificed one hour later. To 1 g of the liver thus obtained from the rats was added 5 mL of a 15% KOH ethanol solution and the resulting mixture was left to stand for 15 hours. After heating at 75° C. for 2 hours, the reaction mixture was extracted with 5 mL of water and 10 mL of petroleum ether. The petroleum ether layer was collected, evaporated to dryness and then dissolved in 50 μl of a chloroform:acetone=2:1 solution. The cholesterol band was separated by silica gel thin layer chromatography (Art.5748, toluene:ethyl acetate=3:1) and cut out. It was put in a vial container, followed by the addition of 10 mL of Aquasol-2 (product of Packard BioScience Company). The radioactivity was measured using a liquid scintillation counter. A ratio of the radioactivity relative to that of a control group was determined and liver-cholesterol synthesis inhibitory activity (%) was calculated.

Row | Compound | IC50 (rat squalene synthetase) | Liver-cholesterol synthesis inhibitory effect [1]
1 | COc1cccc([C@H]2O[C@H](Cc3ncc(CCC(=O)O)s3)c3nnc(C(F)(F)F)n3-c3ccc(Cl)cc32)c1OC (relative stereo) [Example 322, 3-({2-[(trans)-8-Chloro-6-(2,3-dimethoxyphenyl)-1-(trifluoromethyl)-4H,6H-[1,2,4]triazolo[4,3-a][4,1]benzoxazepin-4-yl]methyl}-1,3-thiazol-5-yl)propanoic Acid] | 4.6 nM | 76%
2 | COC(=O)CCc1cnc(C[C@H]2S[C@H](c3cccc(OC)c3OC)c3cc(Cl)ccc3-n3c2nnc3C(F)(F)F)s1 (relative stereo) [Example 330, Methyl 3-({2-[(trans)-8-chloro-6-(2,3-dimethoxyphenyl)-1-(trifluoromethyl)-4H,6H-[1,2,4]triazolo[4,3-a][4,1]benzothiazepin-4-yl]methyl}-1,3-thiazol-5-yl)propanoate] | 4.9 nM | 75%
3 | COc1cccc(C2SC(CC(=O)N3CCC(CC(=O)O)CC3)c3nnc(C(F)(F)F)n3-c3ccc(Cl)cc32)c1OC (single isomer, unassigned) [Example 343, 2-(1-{2-[8-Chloro-6-(2,3-dimethoxyphenyl)-1-(trifluoromethyl)-4H,6H-[1,2,4]triazolo[4,3-a][4,1]benzothiazepin-4-yl]acetyl}-4-piperidinyl)acetic Acid] | 7.6 nM | 80%
4 | COc1cccc([C@H]2O[C@H](CCn3nnc(CC(=O)O)n3)c3cccn3-c3c(F)cc(Cl)cc32)c1OC [Example 21, 2-(2-{2-[(4R,6S)-8-Chloro-6-(2,3-dimethoxyphenyl)-10-fluoro-4H,6H-pyrrolo[1,2-a][4,1]benzoxazepin-4-yl]ethyl}-2H-1,2,3,4-tetrazol-5-yl)acetic Acid] | – | 68%
5 | O=C(O)CC1CCN(C(=O)CC2OC(c3cccc4ccccc34)c3cc(Cl)ccc3-n3cccc32)CC1 (stereo not drawn) [Example 210, 2-(1-{2-[8-Chloro-6-(1-naphthyl)-4H,6H-pyrrolo[1,2-a][4,1]benzoxazepin-4-yl]acetyl}-4-piperidinyl)acetic Acid] | 0.56 nM | –
6 | COc1cccc([C@H]2O[C@H](CCn3cc(C(=O)O)cn3)c3nccn3-c3ccc(Cl)cc32)c1OC [Example 263, 1-{2-[(4R,6S)-8-Chloro-6-(2,3-dimethoxyphenyl)-4H,6H-imidazo[1,2-a][4,1]benzoxazepin-4-yl]ethyl}-1H-pyrazole-4-carboxylic Acid] | 3.9 nM | 84%
7 | COc1cccc(C2SC(CC(=O)O)c3nnc(C(F)(F)F)n3-c3ccc(Cl)cc32)c1OC (stereo not drawn) [Example 341, 2-[8-Chloro-6-(2,3-dimethoxyphenyl)-1-(trifluoromethyl)-4H,6H-[1,2,4]triazolo[4,3-a][4,1]benzothiazepin-4-yl]acetic Acid] | 4.6 nM | 90%
